# Counter-ions that a name gives are not always drawn.
# Tests used:
# [1] = system: primary human fibroblasts; assay: Variations of mitochondrial relationship with the cytoskeleton (area containing entwined mitochondria); conditions: area containing entwined mitochondria in percent of total cell area; FIG. 4 for paclitaxel
# [2] = system: primary human fibroblasts; assay: Variations of mitochondrial motility; type: cell-based; conditions: 0.1 μM, 30 minutes to 16 hours at 37° C, vs vehicle; FIG. 2
# Method: The speed of an organelle' movements is measured by the displacement in μm of this organelle within the lapse of two captured frames. This measure is repeated over the total length of the image capture. Speed can be expressed as an average velocity observed for an organelle over the duration of the capture or by the maximal velocity observed for an organelle over the same duration.
# The amplitude of organelle movements is expressed as a variable of the frequency of bursts in the total displacement of one organelle. A burst is defined as a sudden displacement within 30% of the maximal displacements of an organelle during the period of capture.
# The frequency of organelle movements is expressed as a number of periods during which the organelle remains immobile.
# (§1) Images were captured for 20-40 frames every 3-15 sec on a z scale spanning 1 μm around the initial center of focus. Z slides were reconstructed to generate a movie that was further analyzed for mitochondrial tracking, shape recognition, length measurements and intensities measurements.
# Mitochondrial displacement was assessed by the measure of the mitochondrial velocity, the amplitude of its movement and particularly the frequency of bursts and the frequency of movements represented by the periods of movement arrests (FIG. 2). […]
# [3] = system: primary human fibroblasts; assay: Variations of mitochondrial morphology (mitochondria length, doughnut formation); type: cell-based; conditions: 0.1 to 10 μM, in percent of the vehicle
# Text: Measured parameters can include, but are not restricted to, the length of the mitochondria allowing for an appreciation of the equilibrium between fusion and fission, the number of mitochondria in a doughnut shape per cell, the number of mitochondrial derived vesicle per cell and the number of mitochondria undergoing swelling/aggregation per cell.
# as §1
# Changes in mitochondrial morphology, i.e. in the mitochondria length and in the formation of doughnuts, were observed associated with compound toxicity in a dose dependent manner.
# The mitochondria length and the formation of doughnuts are two parameters which indicate the dynamic modulation of the fission-fusion phenomenon that occurs in the mitochondria. When very short, the mitochondria cannot assume a doughnut shape anymore, thus making the loss of the doughnut shapes a signal very significant of a toxicity than cannot be compensate by the fission-fusion dynamics. When the equilibrium of fission-fusion is impaired the fragmentation of the mitochondria is associated with neurodegeneration (Knott et al., 2008).
Structure (SMILES),variation of mitochondrial relationship with the cytoskeleton [1],number of immobilization periods of mitochondria [2],variations of the mitochondrial motility [2],variations of mitochondria length ([3]; FIG. 3A),variations of the formation of doughnuts ([3]; FIG. 3B)
Cc1ccc(NC(=O)c2ccc(CN3CCN(C)CC3)cc2)cc1Nc1nccc(-c2cccnc2)n1 [imatinib mesylate],did not induce any variation,increasing the number of immobilization periods of mitochondria,induced variations of the mitochondrial motility,induced variations,induced variations
CC(=O)O[C@H]1C(=O)[C@@]2(C)[C@H]([C@H](OC(=O)c3ccccc3)[C@]3(O)C[C@H](OC(=O)[C@H](O)[C@@H](NC(=O)c4ccccc4)c4ccccc4)C(C)=C1C3(C)C)[C@]1(OC(C)=O)CO[C@@H]1C[C@@H]2O [paclitaxel],affected the relationship of mitochondria with cytoskeleton in a dose-dependent manner,,,,
